Results published in patent publication US10206394B2, “Herbicidal compounds” (Syngenta Participations AG, priority 2014, dated 2019).
Like-named read-outs stand apart in the source and are kept apart here.

How the values were obtained:
Assay in all cases: Glasshouse assay for herbicidal activity (pre- and post-emergence), percentage phytotoxicity
Assay type in all cases: in vivo
[1] = tested on: Echinochloa crus-galli (ECHCG); conditions: Echinochloa crus-galli
Outline: (§1)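 Visual phytotoxicity score, 0% = undamaged to 100% = total kill, read 20 days after treatment for PRE and 15 days for POST. Pots of standard soil; treatment at day 1 (PRE) or roughly day 12 (POST). Glasshouse: 16 h photoperiod, 65% RH, 24/18 or 20/16 °C by climate type.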

[2] = tested on: Alopecurus myosuroides (ALOMY); conditions: Alopecurus myosuroides
Outline: as §1

Lolium perenne (LOLPE) = conditions: Lolium perenne
Outline: as §1

Avena fatua (AVEFA) = conditions: Avena fatua
Outline: as §1

[3] = post-emergence, 360 h, 250 g/ha, post-emergence, 15 DAA, visual assessment (100%=total damage, 0%=no damage), read-out: Post-emergence herbicidal activity (percentage phytotoxicity) ECHCG POST
[4] = pre-emergence, 480 h, 250 g/ha, pre-emergence, 20 DAA, visual assessment (100%=total damage, 0%=no damage), read-out: Pre-emergence herbicidal activity (percentage phytotoxicity) ECHCG PRE
[5] = post-emergence, 360 h, 250 g/ha, post-emergence, 15 DAA, visual assessment (100%=total damage, 0%=no damage), read-out: Post-emergence herbicidal activity (percentage phytotoxicity) ALOMY POST
[6] = pre-emergence, 480 h, 250 g/ha, pre-emergence, 20 DAA, visual assessment (100%=total damage, 0%=no damage), read-out: Pre-emergence herbicidal activity (percentage phytotoxicity) ALOMY PRE
[7] = post-emergence, 360 h, 250 g/ha, post-emergence, 15 DAA, visual assessment (100%=total damage, 0%=no damage), read-out: Post-emergence herbicidal activity (percentage phytotoxicity) LOLPE POST
[8] = pre-emergence, 480 h, 250 g/ha, pre-emergence, 20 DAA, visual assessment (100%=total damage, 0%=no damage), read-out: Pre-emergence herbicidal activity (percentage phytotoxicity) LOLPE PRE
[9] = post-emergence, 360 h, 250 g/ha, post-emergence, 15 DAA, visual assessment (100%=total damage, 0%=no damage), read-out: Post-emergence herbicidal activity (percentage phytotoxicity) AVEFA POST
[10] = pre-emergence, 480 h, 250 g/ha, pre-emergence, 20 DAA, visual assessment (100%=total damage, 0%=no damage), read-out: Pre-emergence herbicidal activity (percentage phytotoxicity) AVEFA PRE
[11] = post-emergence, 360 h, Rate 250 g/ha, post-emergence, assessed visually 15 DAA, 100%=total damage, 0%=no damage, read-out: Post-emergence herbicidal activity (percentage phytotoxicity) ECHCG POST
[12] = pre-emergence, 480 h, Rate 250 g/ha, pre-emergence, assessed visually 20 DAA, 100%=total damage, 0%=no damage, read-out: Pre-emergence herbicidal activity (percentage phytotoxicity) ECHCG PRE
[13] = post-emergence, 360 h, Rate 250 g/ha, post-emergence, assessed visually 15 DAA, 100%=total damage, 0%=no damage, read-out: Post-emergence herbicidal activity (percentage phytotoxicity) ALOMY POST
[14] = pre-emergence, 480 h, Rate 250 g/ha, pre-emergence, assessed visually 20 DAA, 100%=total damage, 0%=no damage, read-out: Pre-emergence herbicidal activity (percentage phytotoxicity) ALOMY PRE
[15] = post-emergence, 360 h, Rate 250 g/ha, post-emergence, assessed visually 15 DAA, 100%=total damage, 0%=no damage, read-out: Post-emergence herbicidal activity (percentage phytotoxicity) LOLPE POST
[16] = pre-emergence, 480 h, Rate 250 g/ha, pre-emergence, assessed visually 20 DAA, 100%=total damage, 0%=no damage, read-out: Pre-emergence herbicidal activity (percentage phytotoxicity) LOLPE PRE
[17] = post-emergence, 360 h, Rate 250 g/ha, post-emergence, assessed visually 15 DAA, 100%=total damage, 0%=no damage, read-out: Post-emergence herbicidal activity (percentage phytotoxicity) AVEFA POST
[18] = pre-emergence, 480 h, Rate 250 g/ha, pre-emergence, assessed visually 20 DAA, 100%=total damage, 0%=no damage, read-out: Pre-emergence herbicidal activity (percentage phytotoxicity) AVEFA PRE
[19] = post-emergence, 360 h, POST-emergence, rate 250 g/ha, visual score 15 DAA (100%=total damage, 0%=no damage), read-out: Post-emergence herbicidal activity (percentage phytotoxicity) ECHCG POST
[20] = pre-emergence, 480 h, PRE-emergence, rate 250 g/ha, visual score 20 DAA (100%=total damage, 0%=no damage), read-out: Pre-emergence herbicidal activity (percentage phytotoxicity) ECHCG PRE
[21] = post-emergence, 360 h, POST-emergence, rate 250 g/ha, visual score 15 DAA (100%=total damage, 0%=no damage), read-out: Post-emergence herbicidal activity (percentage phytotoxicity) ALOMY POST
[22] = pre-emergence, 480 h, PRE-emergence, rate 250 g/ha, visual score 20 DAA (100%=total damage, 0%=no damage), read-out: Pre-emergence herbicidal activity (percentage phytotoxicity) ALOMY PRE
[23] = post-emergence, 360 h, POST-emergence, rate 250 g/ha, visual score 15 DAA (100%=total damage, 0%=no damage), read-out: Post-emergence herbicidal activity (percentage phytotoxicity) LOLPE POST
[24] = pre-emergence, 480 h, PRE-emergence, rate 250 g/ha, visual score 20 DAA (100%=total damage, 0%=no damage), read-out: Pre-emergence herbicidal activity (percentage phytotoxicity) LOLPE PRE
[25] = post-emergence, 360 h, POST-emergence, rate 250 g/ha, visual score 15 DAA (100%=total damage, 0%=no damage), read-out: Post-emergence herbicidal activity (percentage phytotoxicity) AVEFA POST
[26] = pre-emergence, 480 h, PRE-emergence, rate 250 g/ha, visual score 20 DAA (100%=total damage, 0%=no damage), read-out: Pre-emergence herbicidal activity (percentage phytotoxicity) AVEFA PRE

Compound	pest or weed control at 250 g/ha [1, 3]	pest or weed control at 250 g/ha [1, 4]	pest or weed control at 250 g/ha [2, 5]	pest or weed control at 250 g/ha [2, 6]	pest or weed control at 250 g/ha (Lolium perenne (LOLPE); [7])	pest or weed control at 250 g/ha (Lolium perenne (LOLPE); [8])	pest or weed control at 250 g/ha (Avena fatua (AVEFA); [9])	pest or weed control at 250 g/ha (Avena fatua (AVEFA); [10])	pest or weed control at 250 g/ha [1, 19]	pest or weed control at 250 g/ha [1, 20]	pest or weed control at 250 g/ha [2, 21]	pest or weed control at 250 g/ha [2, 22]	pest or weed control at 250 g/ha (Lolium perenne (LOLPE); [23])	pest or weed control at 250 g/ha (Lolium perenne (LOLPE); [24])	pest or weed control at 250 g/ha (Avena fatua (AVEFA); [25])	pest or weed control at 250 g/ha (Avena fatua (AVEFA); [26])	further results
CCOC(=O)OC1=C(c2c(C)cc(-c3ncc(Cl)cn3)cc2C)C(=O)C(CC(=O)NC(C)(C)C)C1 (stereo not drawn) [Compound P4]	–	–	–	–	–	–	–	–	–	–	–	–	–	–	–	–	pest or weed control at 250 g/ha ([1]; post-emergence, 360 h, post-emergence, 250 g/ha, 15 DAA, visual score (100%=total damage; 0%=no damage), read-out: ECHCG POST herbicidal activity (percentage phytotoxicity)): 100%; pest or weed control at 250 g/ha ([1]; pre-emergence, 480 h, pre-emergence, 250 g/ha, 20 DAA, visual score (100%=total damage; 0%=no damage), read-out: ECHCG PRE herbicidal activity (percentage phytotoxicity)): 100%; pest or weed control at 250 g/ha ([2]; post-emergence, 360 h, post-emergence, 250 g/ha, 15 DAA, visual score (100%=total damage; 0%=no damage), read-out: ALOMY POST herbicidal activity (percentage phytotoxicity)): 90%; pest or weed control at 250 g/ha ([2]; pre-emergence, 480 h, pre-emergence, 250 g/ha, 20 DAA, visual score (100%=total damage; 0%=no damage), read-out: ALOMY PRE herbicidal activity (percentage phytotoxicity)): 90%; pest or weed control at 250 g/ha (Lolium perenne (LOLPE); post-emergence, 360 h, post-emergence, 250 g/ha, 15 DAA, visual score (100%=total damage; 0%=no damage), read-out: LOLPE POST herbicidal activity (percentage phytotoxicity)): 100%; pest or weed control at 250 g/ha (Lolium perenne (LOLPE); pre-emergence, 480 h, pre-emergence, 250 g/ha, 20 DAA, visual score (100%=total damage; 0%=no damage), read-out: LOLPE PRE herbicidal activity (percentage phytotoxicity)): 100%; pest or weed control at 250 g/ha (Avena fatua (AVEFA); post-emergence, 360 h, post-emergence, 250 g/ha, 15 DAA, visual score (100%=total damage; 0%=no damage), read-out: AVEFA POST herbicidal activity (percentage phytotoxicity)): 100%; pest or weed control at 250 g/ha (Avena fatua (AVEFA); pre-emergence, 480 h, pre-emergence, 250 g/ha, 20 DAA, visual score (100%=total damage; 0%=no damage), read-out: AVEFA PRE herbicidal activity (percentage phytotoxicity)): 90%
C#CCN(CC#C)C(=O)CC1CC(=O)C(c2c(C)cc(C)cc2C)C1=O (stereo not drawn) [Compound B45]	80%	60%	80%	70%	80%	80%	80%	10%	–	–	–	–	–	–	–	–	–
Cc1cc(-c2cc(Cl)ccn2)cc(C)c1C1C(=O)CC(CC(=O)NCc2cccc(C(F)(F)F)c2)C1=O (stereo not drawn) [Compound A154]	–	–	–	–	–	–	–	–	–	–	–	–	–	–	–	–	pest or weed control at 250 g/ha [1, 11]: 100%; pest or weed control at 250 g/ha [1, 12]: 80%; pest or weed control at 250 g/ha [2, 13]: 80%; pest or weed control at 250 g/ha [2, 14]: 50%; pest or weed control at 250 g/ha (Lolium perenne (LOLPE); [15]): 70%; pest or weed control at 250 g/ha (Lolium perenne (LOLPE); [16]): 80%; pest or weed control at 250 g/ha (Avena fatua (AVEFA); [17]): 90%; pest or weed control at 250 g/ha (Avena fatua (AVEFA); [18]): 60%
Cc1cc(-c2ncc(F)cc2F)cc(C)c1C1C(=O)CC(CC(=O)NCc2cccc(Cl)c2)C1=O (stereo not drawn) [Compound B33]	100%	100%	90%	100%	90%	100%	100%	100%	–	–	–	–	–	–	–	–	–
Cc1cc(OCC(F)(F)F)cc(C)c1C1C(=O)CC(CC(=O)NCc2cccc(Cl)c2)C1=O (stereo not drawn) [Compound B204]	–	–	–	–	–	–	–	–	100%	90%	100%	90%	90%	90%	100%	80%	–
Cc1cc(C)c(C2C(=O)CC(CC(=O)NCC#CCCl)C2=O)c(C)c1 (stereo not drawn) [Compound B36]	20%	0%	30%	50%	50%	80%	40%	0%	–	–	–	–	–	–	–	–	–
Cc1cc(-c2ncc(F)cc2F)cc(C)c1C1C(=O)CC(CC(=O)NC(C)C)C1=O (stereo not drawn) [Compound B203]	–	–	–	–	–	–	–	–	100%	100%	100%	100%	100%	100%	100%	100%	–
Cc1cc(-c2ncc(F)cn2)cc(C)c1C1C(=O)CC(CC(=O)NCC(C)C)C1=O (stereo not drawn) [Compound B112]	100%	100%	100%	100%	100%	100%	100%	100%	–	–	–	–	–	–	–	–	–
COc1ccc(CNC(=O)CC2CC(=O)C(c3c(C)cc(OCC(F)(F)F)cc3C)C2=O)cc1 (stereo not drawn) [Compound B206]	–	–	–	–	–	–	–	–	90%	90%	90%	80%	90%	80%	90%	70%	–
Cc1cc(-c2ccc(C#N)cn2)cc(C)c1C1C(=O)CC(CC(=O)NCc2cccs2)C1=O (stereo not drawn) [Compound A156]	–	–	–	–	–	–	–	–	–	–	–	–	–	–	–	–	pest or weed control at 250 g/ha [1, 11]: 100%; pest or weed control at 250 g/ha [1, 12]: 100%; pest or weed control at 250 g/ha [2, 13]: 70%; pest or weed control at 250 g/ha [2, 14]: 60%; pest or weed control at 250 g/ha (Lolium perenne (LOLPE); [15]): 80%; pest or weed control at 250 g/ha (Lolium perenne (LOLPE); [16]): 80%; pest or weed control at 250 g/ha (Avena fatua (AVEFA); [17]): 80%; pest or weed control at 250 g/ha (Avena fatua (AVEFA); [18]): 70%
Cc1cc(-n2cc(Cl)cn2)cc(C)c1C1C(=O)CC(CC(=O)NCc2cccc(Br)c2)C1=O (stereo not drawn) [Compound B312]	–	–	–	–	–	–	–	–	100%	70%	90%	10%	80%	70%	100%	10%	–
C=CCNC(=O)CC1CC(=O)C(c2c(C)cc(-c3ncc(F)cn3)cc2C)C1=O (stereo not drawn) [Compound B108]	100%	100%	100%	100%	100%	90%	100%	90%	–	–	–	–	–	–	–	–	–
